Test results: patent US20160113911A1, “METHODS AND COMPOSITIONS FOR THE TREATMENT OF CANCER” (THE GENERAL HOSPITAL CORPORATION, priority 2013, published 2016)

Tests used:
HEK 293T cells [1] = test: MTT proliferation and viability assay; type: cell-based, human; details: shRNA 4A.10 or 4A.06, 48h
Experimental: For tissue culture and generation of stable cell lines see (Black et al., 2010). Rapamycin (LC Laboratories) and AZD8055 (Selleckchem) were used at indicated concentrations. […] JIB-04 (Xcessbio) was used at a final concentration of 250 nM. For the translation assays, DMEM depleted of Methionine and Cysteine (Life Technologies 21013-024) was used.
MTT assays were performed following supplier's instructions from the Cell Proliferation Kit I™ (MTT) from Roche. Briefly, 1×10^4 cells were seeded per well of a 96 well plate and grown for 24h before treatment. Forty-eight hours later, cells were assayed.

p53 = p53 stabilization and p53 target gene induction after DNA damage; type: cell-based, human; details: RPE GFP-CTRL and GFP-KDM4A cells; 1 uM for 16 hrs
Experimental: Western blots were performed as in (Black et al., 2010). Antibodies used were: KDM4A (Neuro mAB, 75-189), β-actin (Millipore), GFP (Neuro mAB, 73-131), RFP (Abcam, ab62341), p53 (Santa Cruz, sc-126), MCM2 (Cell Signaling, #3619S), MCM3 (Cell Signaling, #4012S), MCM7 (Cell Signaling, #3735S), Halo (Promega), Actinin (Santa Cruz, sc-17829), HA 12CA5 (Roche), FLAG M2 (Sigma), DNA Pol α (Abcam, ab31777).

RPE cells = test: Apoptosis by annexin V staining; type: cell-based, human; details: RPE CTRL and KDM4A overexpressing cells
HEK 293T cells [2] = test: Monitored cell proliferation assay (xCELLigence growth curves, doubling time); type: cell-based, human
Experimental: Seventy two hours post transfection 1×10^4 HEK 293T cells were seeded per well of a 96 well plate, and then treated after 24h. Cell proliferation was monitored with an xCELLigence system (Roche) (Vistejnova et al., 2009).

H3K36me3 = test: H3K36 demethylase activity of KDM4A variants in transfected cells (immunofluorescence); type: cell-based; details: U2OS cells transfected with GFP-KDM4A

**Q.** Which “drug sensitivity of KDM4A shRNA cells vs control vector (MTT)” value (HEK 293T cells [1]) does the source give for COc1ccc(-c2ccc3c(N4CCOC[C@@H]4C)nc(N4CCOC[C@@H]4C)nc3n2)cc1CO [AZD8055] here?
**A.** Its value is “more sensitive”.

**Q.** What does the source list for COc1cccc2c1C(=O)c1c(O)c3c(c(O)c1C2=O)C[C@@](O)(C(=O)CO)C[C@@H]3O[C@H]1C[C@H](N)[C@H](O)[C@H](C)O1 [doxorubicin]?
**A.** p53 stabilization and p53 target gene activation (p53): resulted in stabilization of p53 and activation of p53 target genes; apoptosis (percent Annexin V positive cells) (RPE cells): could induce apoptosis in both CTRL and KDM4A cells

B1: KDM4A SNP-A482: KDM4A germline variant E482A (protein)
chain: MASESETLNPSARIMTFYPTMEEFRNFSRYIAYIESQGAHRAGLAKVVPPKEWKPRASYDDIDDLVIPAPIQQLVTGQSGLFTQYNIQKKAMTVREFRKIANSDKYCTPRYSEFEELERKYWKNLTFNPPIYGADVNGTLYEKHVDEWNIGRLRTILDLVEKESGITIEGVNTPYLYFGMWKTSFAWHTEDMDLYSINYLHFGEPKSWYSVPPEHGKRLERLAKGFFPGSAQSCEAFLRHKMTLISPLMLKKYGIPFDKVTQEAGEFMITFPYGYHAGFNHGFNCAESTNFATRRWIEYGKQAVLCSCRKDMVKISMDVFVRKFQPERYKLWKAGKDNTVIDHTLPTPEAAEFLKESELPPRAGNEEECPEEDMEGVEDGEEGDLKTSLAKHRIGTKRHRVCLEIPQEVSQSELFPKEDLSSEQYEMTECPAALAPVRPTHSSVRQVEDGLTFPDYSDSTEVKFEELKNVKLEEEDEEEEQAAAALDLSVNPASVGGRLVFSGSKKKSSSSLGSGSSRDSISSDSETSEPLSCRAQGQTGVLTVHSYAKGDGRVTVGEPCTRKKGSAARSFSERELAEVADEYMFSLEENKKSKGRRQPLSKLPRHHPLVLQECVSDDETSEQLTPEEEAEETEAWAKPLSQLWQNRPPNFEAEKEFNETMAQQAPHCAVCMIFQTYHQVEFGGFNQNCGNASDLAPQKQRTKPLIPEMCFTSTGCSTDINLSTPYLEEDGTSILVSCKKCSVRVHASCYGVPPAKASEDWMCSRCSANALEEDCCLCSLRGGALQRANDDRWVHVSCAVAILEARFVNIAERSPVDVSKIPLPRFKLKCIFCKKRRKRTAGCCVQCSHGRCPTAFHVSCAQAAGVMMQPDDWPFVVFITCFRHKIPNLERAKGALQSITAGQKVISKHKNGRFYQCEVVRLTTETFYEVNFDDGSFSDNLYPEDIVSQDCLQFGPPAEGEVVQVRWTDGQVYGAKFVASHPIQMYQVEFEDGSQLVVKRDDVYTLDEELPKRVKSRLSVASDMRFNEIFTEKEVKQEKKRQRVINSRYREDYIEPALYRAIME
modifications: left off: large carriers; small tags and cut ends
notes: KDM4A germline variant E482A
**Q.** How did the “rescue of increased sensitivity to AZD8055 due to KDM4A depletion (doubling time 5h-35h)” value (HEK 293T cells [2]; shRNA KDM4A plus non targetable GFP-KDM4A constructs) turn out when B1 was run?
**A.** Its value is “does not”.

**Q.** What about the “rescue of increased sensitivity to Rapamycin of KDM4A depleted cells (doubling time 5h-35h)” value (HEK 293T cells [2]; shRNA KDM4A plus shRNA-resistant GFP-KDM4A constructs) of the same molecule?
**A.** Its value is “does not”.

**Q.** And the “H3K36me3 and H3K9me3 catalytic activities” value (H3K36me3)?
**A.** Its value is “did not appear to be altered”.
